Laboratory results as given in patent US20260022143A1, “Cyclic Peptide Inhibitors of IL-23” (JANSSEN PHARMACEUTICA NV, priority 2022, published 2026).
Positions of bridges follow the written chain, without caps; N, C: chain ends. Non-standard residues stand in square brackets, D forms with d. Residues, ends and D or L forms follow the SMILES beside them. *: point of attachment. Trp(7-(3-AcNH-Ph)) = CC(=O)Nc1cccc(-c2cccc3c(C[C@H](N)C(=O)O)c[nH]c23)c1; Me3N+(CH2)2O(CH2)2O(CH2)2CO = C[N+](C)(C)CCOCCOCCC(=O)*; CH2CH2OCH2CH2OCH2CH2NMe3+ = C[N+](C)(C)CCOCCOCC*; Trp(7-Me) = Cc1cccc2c(C[C@H](N)C(=O)O)c[nH]c12; dLys(Me3) = C[N+](C)(C)CCCC[C@@H](N)C(=O)O; 3Pal(5-Me) = Cc1cncc(C[C@H](N)C(=O)O)c1; 2Nal = N[C@@H](Cc1ccc2ccccc2c1)C(=O)O; AEF = NCCOc1ccc(C[C@H](N)C(=O)O)cc1; 3Pal = N[C@@H](Cc1cccnc1)C(=O)O; Ethyl(2-guanidino) = N=C(N)NCC*; Lys(Me) = CNCCCC[C@H](N)C(=O)O; Pen = CC(C)(S)[C@H](N)C(=O)O; Thp = NC1(C(=O)O)CCOCC1; X3 = C[N+](C)(C)CCCCC*; Sar = CNCC(=O)O

Assay: Exposed Polar Surface Area (EPSA)
Type: physicochemical
Conditions: SFC on Chirex 3014 column; sample 1 mM DMSO stock; read-out: EPSA
In short: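 SFC retention on a Chirex 3014 (S-valine/(R)-1-(α-naphthyl)ethylamine) column at 35 °C, 4 mL/min, 14 MPa outlet, 5–60% methanol/20 mM ammonium formate gradient in CO2. Retention times converted to EPSA (Å²) via linear calibration with 8 standards; samples from 1 mM DMSO stock, run in duplicate.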

SMILES	EPSA [A^2]
CC(=O)N(C)CCCC[C@H](NC(=O)[C@H](Cc1c[nH]c2ccccc12)NC(=O)[C@H](Cc1ccc2ccccc2c1)NC(=O)[C@H](Cc1ccc(OCCOCCOCC[N+](C)(C)C)cc1)NC(=O)[C@H]1NC(=O)[C@H](Cc2c[nH]c3ccccc23)NC(=O)[C@H](Cc2c[nH]c3c(C)cccc23)NC(=O)[C@H]([C@@H](C)O)NC(=O)[C@H](Cc2c[nH]c3ccccc23)NC(=O)[C@@H](NC(=O)CCOCCOCC[N+](C)(C)C)C(C)(C)SSC1(C)C)C(=O)N[C@@H](CC(N)=O)C(=O)N[C@@H](Cc1cccnc1)C(=O)N(C)CC(=O)N(C)C [compound 465, cPEG3aCO-Pen(3)-W-T-7MeW-W-Pen(3)-APEG3f-2Nal-W-K(NMeAc)-N-3Pya-Sar-CON(Me)2] ({Me3N+(CH2)2O(CH2)2O(CH2)2CO}-[Pen]WT[Trp(7-Me)]W[Pen]Y(CH2CH2OCH2CH2OCH2CH2NMe3+)[2Nal]W[Lys(Me)](Ac)N[3Pal][Sar]-NMe2; disulfide 1-6)	176
CC(=O)NCCCC[C@@H]1NC(=O)[C@H](Cc2c[nH]c3c(C)cccc23)NC(=O)[C@H]([C@@H](C)O)NC(=O)[C@H](CC(N)=O)NC(=O)[C@@H](NC(=O)[C@@H](CCCC[N+](C)(C)C)NC(C)=O)C(C)(C)SSC(C)(C)[C@@H](C(=O)N[C@@H](Cc2ccc(OCCN)cc2)C(=O)N[C@@H](Cc2ccc3ccccc3c2)C(=O)NC2(C(=O)N[C@@H](CCC(=O)O)C(=O)N[C@@H](CC(N)=O)C(=O)N[C@@H](Cc3cncc(C)c3)C(=O)N(C)CC(N)=O)CCOCC2)NC1=O [compound 474] (Ac-[dLys(Me3)][Pen]NT[Trp(7-Me)]K(Ac)[Pen][AEF][2Nal][Thp]EN[3Pal(5-Me)][Sar]-NH2; disulfide 2-7)	185
CC(=O)NCCCC[C@@H]1NC(=O)[C@H](Cc2c[nH]c3c(C)cccc23)NC(=O)[C@H]([C@@H](C)O)NC(=O)[C@H](CC(N)=O)NC(=O)[C@H](NC(C)=O)CSSC[C@@](C)(C(=O)N[C@@H](Cc2ccc(OCCCCC[N+](C)(C)C)cc2)C(=O)N[C@@H](Cc2ccc3ccccc3c2)C(=O)NC2(C(=O)N[C@@H](CCCCNC(C)=O)C(=O)N[C@@H](CC(N)=O)C(=O)N[C@@H](Cc3cccnc3)C(=O)N(C)CC(N)=O)CCOCC2)NC1=O [compound 478, MeCO-C(3)-N-T-7MeW-K(Ac)-aMeC(3)-TMAPF-2Nal-THP-K(Ac)-N-3Pya-Sar-CONH2]	164
CC(=O)NCCCC[C@@H]1NC(=O)[C@H](Cc2c[nH]c3c(-c4cccc(NC(C)=O)c4)cccc23)NC(=O)[C@H]([C@@H](C)O)NC(=O)[C@H](CC(N)=O)NC(=O)[C@@H](NC(=O)[C@@H](CCCC[N+](C)(C)C)NC(C)=O)C(C)(C)SSC(C)(C)[C@@H](C(=O)N[C@@H](Cc2ccc(OCCNC(=N)N)cc2)C(=O)N[C@@H](Cc2ccc3ccccc3c2)C(=O)NC2(C(=O)N[C@@H](CCC(=O)O)C(=O)N[C@@H](CC(N)=O)C(=O)N[C@@H](Cc3cncc(C)c3)C(=O)N(C)CC(N)=O)CCOCC2)NC1=O [compound 480, MeCO-k(Me)3-Pen(3)-N-T-7(3NAcPh)W-K(Ac)-Pen(3)-AEF(G)-2Nal-THP-E-N-5MePyridinAla-Sar-CONH2] (Ac-[dLys(Me3)][Pen]NT[Trp(7-(3-AcNH-Ph))]K(Ac)[Pen]Y(Ethyl(2-guanidino))[2Nal][Thp]EN[3Pal(5-Me)][Sar]-NH2; disulfide 2-7)	198
CC(=O)NCCCC[C@@H]1NC(=O)[C@H](Cc2c[nH]c3c(-c4cccc(NC(C)=O)c4)cccc23)NC(=O)[C@H]([C@@H](C)O)NC(=O)[C@H](CC(N)=O)NC(=O)[C@@H](NC(C)=O)C(C)(C)SSC(C)(C)[C@@H](C(=O)N[C@@H](Cc2ccc(OCCNC(=N)N)cc2)C(=O)N[C@@H](Cc2ccc3ccccc3c2)C(=O)NC2(C(=O)N[C@@H](CCCCN(C)C(C)=O)C(=O)N[C@@H](CC(N)=O)C(=O)N[C@@H](Cc3cncc(C)c3)C(=O)N(C)CC(N)=O)CCOCC2)NC1=O [compound 482, MeCO-Pen(3)-N-T-7(3NAcPh)W-K(Ac)-Pen(3)-AEF(G)-2Nal-THP-K(NMeAc)-N-5MePyridinAla-Sar-CONH2]	180
CC(=O)N(C)CCCC[C@@H]1NC(=O)[C@H](Cc2c[nH]c3c(C)cccc23)NC(=O)[C@H]([C@@H](C)O)NC(=O)[C@H](CC(=O)N(C)C)NC(=O)[C@@H](NC(=O)CCOCCOCC[N+](C)(C)C)C(C)(C)SSC[C@@H](C(=O)N[C@@H](Cc2ccc(OCCCCC[N+](C)(C)C)cc2)C(=O)N[C@@H](Cc2ccc3ccccc3c2)C(=O)NC2(C(=O)N[C@@H](CCCCN(C)C(C)=O)C(=O)N[C@@H](CC(N)=O)C(=O)N[C@@H](Cc3cccnc3)C(=O)N(C)CC(=O)N(C)C)CCOCC2)NC1=O [compound 485, cPEG3aCO-Pen(3)-N(N(Me)2)-T-7MeW-K(NMeAc)-C(3)-TMAPF-2Nal-THP-K(NMeAc)-N-3Pya-Sar-CON(Me)2] ({Me3N+(CH2)2O(CH2)2O(CH2)2CO}-[Pen]D(NMe2)T[Trp(7-Me)][Lys(Me)](Ac)CY(X3)[2Nal][Thp][Lys(Me)](Ac)N[3Pal][Sar]-NMe2; disulfide 1-6)	163

Second part, the compound after the results:

EPSA [A^2]	SMILES
182	CC(=O)NCCCC[C@@H]1NC(=O)[C@H](Cc2c[nH]c3c(C)cccc23)NC(=O)[C@H]([C@@H](C)O)NC(=O)[C@H](CC(N)=O)NC(=O)[C@@H](NC(=O)COCCOCCNC(=O)COCCOCCNC(=O)COc2ccc(-c3ccc(F)cc3F)cc2C(=O)O)C(C)(C)SSC(C)(C)[C@@H](C(=O)N[C@@H](Cc2ccc(OCCCCC[N+](C)(C)C)cc2)C(=O)N[C@@H](Cc2ccc3ccccc3c2)C(=O)NC2(C(=O)N[C@@H](CCCCN(C)C(C)=O)C(=O)N[C@@H](CC(N)=O)C(=O)N[C@@H](Cc3cccnc3)C(=O)N(C)CC(N)=O)CCOCC2)NC1=O [compound 490, DFNPEG2PEG2CO-Pen(3)-N-T-7MeW-K(Ac)-Pen(3)-TMAPF-2Nal-THP-K(Ac)-N-3Pya-Sar-CONH2]
132	CC(=O)N(C)CCCC[C@@H]1NC(=O)[C@H](Cc2c[nH]c3c(C)cccc23)NC(=O)[C@H](CC(C)C)NC(=O)[C@H](CC(=O)N(C)C)NC(=O)[C@@H](NC(=O)CCOCCOCC[N+](C)(C)C)C(C)(C)SSC(C)(C)[C@@H](C(=O)N[C@@H](Cc2ccc(OCCCCC[N+](C)(C)C)cc2)C(=O)N[C@@H](Cc2ccc3ccccc3c2)C(=O)NC2(C(=O)N[C@@H](CCCCN(C)C(C)=O)C(=O)N[C@@H](CC(N)=O)C(=O)N[C@@H](Cc3cccnc3)C(=O)N(C)CC(=O)N(C)C)CCOCC2)NC1=O [compound 493, cPEG3aCO-Pen(3)-N(N(Me)2)-L-7MeW-K(NMeAc)-Pen(3)-TMAPF-2Nal-THP-K(NMeAc)-N-3Pya-Sar-CON(Me)2] ({Me3N+(CH2)2O(CH2)2O(CH2)2CO}-[Pen]D(NMe2)L[Trp(7-Me)][Lys(Me)](Ac)[Pen]Y(X3)[2Nal][Thp][Lys(Me)](Ac)N[3Pal][Sar]-NMe2; disulfide 1-6)
160	CC(=O)N(C)CCCC[C@@H]1NC(=O)[C@H](Cc2c[nH]c3c(C)cccc23)NC(=O)[C@H]([C@@H](C)O)NC(=O)[C@H](CC(C)C)NC(=O)[C@@H](NC(=O)CCOCCOCC[N+](C)(C)C)C(C)(C)SSC(C)(C)[C@@H](C(=O)N[C@@H](Cc2ccc(OCCCCC[N+](C)(C)C)cc2)C(=O)N[C@@H](Cc2ccc3ccccc3c2)C(=O)NC2(C(=O)N[C@@H](CCCCN(C)C(C)=O)C(=O)N[C@@H](CC(N)=O)C(=O)N[C@@H](Cc3cccnc3)C(=O)N(C)CC(=O)N(C)C)CCOCC2)NC1=O [compound 495, cPEG3aCO-Pen(3)-1-T-7MeW-K(NMeAc)-Pen(3)-TMAPF-2Nal-THP-K(NMeAc)-N-3Pya-Sar-CON(Me)2] ({Me3N+(CH2)2O(CH2)2O(CH2)2CO}-[Pen]LT[Trp(7-Me)][Lys(Me)](Ac)[Pen]Y(X3)[2Nal][Thp][Lys(Me)](Ac)N[3Pal][Sar]-NMe2; disulfide 1-6)
179	CC(=O)NCCCC[C@@H]1NC(=O)[C@H](Cc2c[nH]c3c(C)cccc23)NC(=O)[C@H]([C@@H](C)O)NC(=O)[C@H](CC(N)=O)NC(=O)[C@@H](NC(=O)CCOCCOCC[N+](C)(C)C)C(C)(C)SSC(C)(C)[C@@H](C(=O)N[C@@H](Cc2ccc(OCCCCC[N+](C)(C)C)cc2)C(=O)N[C@@H](Cc2ccc3ccccc3c2)C(=O)NC2(C(=O)N[C@@H](CCC(=O)O)C(=O)N[C@@H](CC(N)=O)C(=O)N[C@@H](Cc3cncc(C)c3)C(=O)N(C)CC(N)=O)CCOCC2)NC1=O [compound 505, cPEG3aCO-Pen(3)-N-T-7MeW-K(Ac)-Pen(3)-TMAPF-2Nal-THP-E-N-5MePyridinAla-Sar-CONH2]
197	CC(=O)NCCCC[C@@H]1NC(=O)[C@H](Cc2c[nH]c3c(C)cccc23)NC(=O)[C@H]([C@@H](C)O)NC(=O)[C@H](CC(N)=O)NC(=O)[C@@H](NC(=O)[C@@H](CCCNC(=N)N)NC(=O)CCOCCOCC[N+](C)(C)C)C(C)(C)SSC(C)(C)[C@@H](C(=O)N[C@@H](Cc2ccc(OCCNC(=N)N)cc2)C(=O)N[C@@H](Cc2ccc3ccccc3c2)C(=O)NC2(C(=O)N[C@@H](CCC(=O)O)C(=O)N[C@@H](CC(N)=O)C(=O)N[C@@H](Cc3cncc(C)c3)C(=O)N(C)CC(N)=O)CCOCC2)NC1=O [compound 508, cPEG3aCO-r-Pen(3)-N-T-7MeW-K(Ac)-Pen(3)-AEF(G)-2Nal-THP-E-N-5MePyridinAla-Sar-CONH2] ({Me3N+(CH2)2O(CH2)2O(CH2)2CO}-[dR][Pen]NT[Trp(7-Me)]K(Ac)[Pen]Y(Ethyl(2-guanidino))[2Nal][Thp]EN[3Pal(5-Me)][Sar]-NH2; disulfide 2-7)
224	CC(=O)NCCCC[C@@H]1NC(=O)[C@H](Cc2c[nH]c3c(-c4cccc(NC(C)=O)c4)cccc23)NC(=O)[C@H]([C@@H](C)O)NC(=O)[C@H](CC(N)=O)NC(=O)[C@@H](NC(=O)[C@@H](CCCC[N+](C)(C)C)NC(C)=O)C(C)(C)SSC(C)(C)[C@@H](C(=O)N[C@@H](Cc2ccc(OCCCCC[N+](C)(C)C)cc2)C(=O)N[C@@H](Cc2ccc3ccccc3c2)C(=O)NC2(C(=O)N[C@@H](CCC(=O)O)C(=O)N[C@@H](CC(N)=O)C(=O)N[C@@H](Cc3cncc(C)c3)C(=O)N(C)CC(N)=O)CCOCC2)NC1=O [compound 513, MeCO-k(Me)3-Pen(3)-N-T-7(3NAcPh)W-K(Ac)-Pen(3)-TMAPF-2Nal-THP-E-N-5MePyridinAla-Sar-CONH2] (Ac-[dLys(Me3)][Pen]NT[Trp(7-(3-AcNH-Ph))]K(Ac)[Pen]Y(X3)[2Nal][Thp]EN[3Pal(5-Me)][Sar]-NH2; disulfide 2-7)
